US12065436B2, “Cardiac sarcomere inhibitors” (Cytokinetics, Inc., priority 2018, dated 2024)

Target: bovine cardiac myofibrils (full-length cardiac myosin ATPase in the native sarcomere) (Bos taurus (Bovine), UniProt Q9BE39)
Assay: Skinned bovine cardiac myofibril ATPase assay (PK/LDH-coupled)
Format: biochemical
Conditions: Ca2+ activating to 75% of maximal rate; for CDMF75 IC15: concentration giving 15% inhibition; for IC50: read-out: CDMF75 IC50
Summary of the method: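 Inhibition of steady-state ATPase read at 340 nm through a PK/LDH-coupled NADH system (0.5 mM NADH, 1.5 mM PEP). Detergent-skinned bovine cardiac myofibrils, 1 mg/mL, were tested at pH 6.8 in PIPES/MgCl2 with 50 μM ATP and calcium adjusted to give pCa50 or pCa75 activation.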

Chain of bovine cardiac myofibrils (full-length cardiac myosin ATPase in the native sarcomere) (Q9BE39 whole entry): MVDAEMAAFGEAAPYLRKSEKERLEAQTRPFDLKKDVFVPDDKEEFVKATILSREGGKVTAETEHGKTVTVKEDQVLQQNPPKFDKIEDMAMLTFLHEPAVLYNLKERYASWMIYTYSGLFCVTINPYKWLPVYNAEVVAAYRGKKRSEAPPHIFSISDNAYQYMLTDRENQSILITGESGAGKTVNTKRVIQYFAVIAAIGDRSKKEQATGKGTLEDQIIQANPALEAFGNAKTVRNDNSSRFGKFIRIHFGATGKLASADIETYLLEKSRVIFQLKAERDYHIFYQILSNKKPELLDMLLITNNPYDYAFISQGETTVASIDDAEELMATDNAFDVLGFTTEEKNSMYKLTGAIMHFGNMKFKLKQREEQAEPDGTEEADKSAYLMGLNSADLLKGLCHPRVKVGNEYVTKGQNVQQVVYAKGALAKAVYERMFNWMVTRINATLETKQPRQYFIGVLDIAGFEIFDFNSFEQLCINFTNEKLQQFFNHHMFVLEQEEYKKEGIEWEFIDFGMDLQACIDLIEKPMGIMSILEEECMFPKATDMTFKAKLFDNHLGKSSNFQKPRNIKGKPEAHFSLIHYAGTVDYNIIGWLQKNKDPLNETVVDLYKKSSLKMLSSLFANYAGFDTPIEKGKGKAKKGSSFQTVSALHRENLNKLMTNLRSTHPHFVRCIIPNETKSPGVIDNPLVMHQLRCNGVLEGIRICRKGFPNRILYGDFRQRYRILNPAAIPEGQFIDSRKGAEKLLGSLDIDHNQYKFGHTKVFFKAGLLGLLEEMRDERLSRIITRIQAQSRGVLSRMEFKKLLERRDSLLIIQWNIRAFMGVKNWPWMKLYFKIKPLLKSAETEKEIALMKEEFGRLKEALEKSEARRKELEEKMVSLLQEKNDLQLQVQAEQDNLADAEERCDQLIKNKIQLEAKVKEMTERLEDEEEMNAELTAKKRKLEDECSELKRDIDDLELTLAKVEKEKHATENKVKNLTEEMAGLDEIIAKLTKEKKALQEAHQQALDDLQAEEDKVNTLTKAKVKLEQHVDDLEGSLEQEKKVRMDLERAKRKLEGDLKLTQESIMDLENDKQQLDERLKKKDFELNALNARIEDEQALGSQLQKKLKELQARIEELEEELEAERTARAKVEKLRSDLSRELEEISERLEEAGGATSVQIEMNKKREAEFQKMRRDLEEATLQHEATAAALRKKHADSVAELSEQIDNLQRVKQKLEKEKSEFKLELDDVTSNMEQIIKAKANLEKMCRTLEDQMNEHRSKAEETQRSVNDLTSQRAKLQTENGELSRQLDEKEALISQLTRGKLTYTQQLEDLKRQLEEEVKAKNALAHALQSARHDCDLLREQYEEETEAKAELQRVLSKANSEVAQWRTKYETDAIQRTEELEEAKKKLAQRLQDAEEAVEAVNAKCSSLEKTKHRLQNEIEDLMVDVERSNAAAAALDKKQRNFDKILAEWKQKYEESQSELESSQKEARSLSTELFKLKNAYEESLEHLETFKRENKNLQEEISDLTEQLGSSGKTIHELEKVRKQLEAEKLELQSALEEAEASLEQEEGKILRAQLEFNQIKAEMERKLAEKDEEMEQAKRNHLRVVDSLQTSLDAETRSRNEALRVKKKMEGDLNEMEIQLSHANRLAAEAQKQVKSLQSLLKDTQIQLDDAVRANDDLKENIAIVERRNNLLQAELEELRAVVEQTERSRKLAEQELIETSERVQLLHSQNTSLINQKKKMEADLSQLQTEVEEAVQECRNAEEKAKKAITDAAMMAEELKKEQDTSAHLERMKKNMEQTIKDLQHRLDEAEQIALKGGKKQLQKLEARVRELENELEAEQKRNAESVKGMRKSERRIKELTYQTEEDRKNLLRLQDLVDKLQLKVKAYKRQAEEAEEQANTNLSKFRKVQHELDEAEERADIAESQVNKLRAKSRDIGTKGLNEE
Chain of bovine cardiac myofibrils (full-length cardiac myosin ATPase in the native sarcomere) (P85100 whole entry partner): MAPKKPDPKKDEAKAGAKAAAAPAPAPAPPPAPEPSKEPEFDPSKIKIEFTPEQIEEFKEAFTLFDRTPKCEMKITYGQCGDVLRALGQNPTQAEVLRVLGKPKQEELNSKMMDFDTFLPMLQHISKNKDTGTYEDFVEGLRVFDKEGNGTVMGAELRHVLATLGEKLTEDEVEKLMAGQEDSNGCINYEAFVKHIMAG
Chain of bovine cardiac myofibrils (full-length cardiac myosin ATPase in the native sarcomere) (Q3SZE5 whole entry partner): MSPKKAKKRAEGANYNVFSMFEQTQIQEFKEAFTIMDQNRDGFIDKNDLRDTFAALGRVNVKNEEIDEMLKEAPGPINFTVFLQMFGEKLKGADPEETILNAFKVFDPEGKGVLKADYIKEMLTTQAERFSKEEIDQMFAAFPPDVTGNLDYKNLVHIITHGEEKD

SMILES | CDMF75 IC15 [µM] | IC50 [µM]
O=C(N[C@@H]1CCc2cc(-c3noc(C(F)F)n3)ccc21)c1ocnc1C(F)(F)F [Compound 682, (R)-N-(5-(5-(difluoromethyl)-1,2,4-oxadiazol-3-yl)-2,3-dihydro-1H-inden-1-yl)-4-(trifluoromethyl)oxazole-5-carboxamide] | 0.4 | 1.6
[2H]C([2H])([2H])c1nc(-c2ccc3c(c2)CC[C@H]3NC(=O)c2nnn(C)n2)no1 [Compound 243, (R)-2-methyl-N-(5-(5-(methyl-d3)-1,2,4-oxadiazol-3-yl)-2,3-dihydro-1H-inden-1-yl)-2H-tetrazole-5-carboxamide] | 1.3 | 4.7
[2H]C([2H])([2H])c1nc(-c2ccc3c(c2)CC[C@H]3NC(=O)c2cnn(CCOC)c2)no1 [Compound 514, (R)-1-(2-methoxyethyl)-N-(5-(5-(methyl-d3)-1,2,4-oxadiazol-3-yl)-2,3-dihydro-1H-inden-1-yl)-1H-pyrazole-4-carboxamide] | 2.7 | 11
Cc1nc(-c2ccc3c(c2)OCC3NC(=O)c2nnn(C)n2)no1 (centres unmarked) [Compound 199, 2-methyl-N-(6-(5-methyl-1,2,4-oxadiazol-3-yl)-2,3-dihydrobenzofuran-3-yl)-2H-tetrazole-5-carboxamide] | 6.0 | 24.1
Cn1cc(C(=O)N[C@@H]2CCc3cc(-c4noc(C5CCC5)n4)ccc32)ccc1=O [Compound 645, (R)-N-(5-(5-cyclobutyl-1,2,4-oxadiazol-3-yl)-2,3-dihydro-1H-inden-1-yl)-1-methyl-6-oxo-1,6-dihydropyridine-3-carboxamide] | 1.6 | 7
Cc1cc(C(=O)N[C@@H]2CCc3cc(-c4cc(C)on4)ccc32)ccn1 [Compound 138, (R)-2-methyl-N-(5-(5-methylisoxazol-3-yl)-2,3-dihydro-1H-inden-1-yl)isonicotinamide] | 0.8 | 2.9
Cc1nc(-c2ccc3c(c2)OC[C@H]3NC(=O)c2conc2C)no1 [Compound 347, (S)-3-methyl-N-(6-(5-methyl-1,2,4-oxadiazol-3-yl)-2,3-dihydrobenzofuran-3-yl)isoxazole-4-carboxamide] | 0.5 | 1.6
Cc1cc(C(=O)NC2COc3cc(-c4noc(C)n4)ccc32)n(C)n1 (centres unmarked) [Compound 155, 1,3-dimethyl-N-(6-(5-methyl-1,2,4-oxadiazol-3-yl)-2,3-dihydrobenzofuran-3-yl)-1H-pyrazole-5-carboxamide] | 1.0 | 4.1
O=C(N[C@@H]1CCc2cc(-c3noc(C(F)F)n3)ccc21)c1cccc(CO)c1F [Compound 662, (R)-N-(5-(5-(difluoromethyl)-1,2,4-oxadiazol-3-yl)-2,3-dihydro-1H-inden-1-yl)-2-fluoro-3-(hydroxymethyl)benzamide] | 1.6 | 7.2
CCc1nc(-c2ccc3c(c2)CC[C@H]3NC(=O)c2coc(COC)n2)no1 [Compound 467, (R)-N-(5-(5-ethyl-1,2,4-oxadiazol-3-yl)-2,3-dihydro-1H-inden-1-yl)-2-(methoxymethyl)oxazole-4-carboxamide] | 2.1 | 8.4
CCc1nc(-c2ccc3c(c2)CC[C@H]3NC(=O)c2cccc(CO)c2)no1 [Compound 653, (R)-N-(5-(5-ethyl-1,2,4-oxadiazol-3-yl)-2,3-dihydro-1H-inden-1-yl)-3-(hydroxymethyl)benzamide] | 0.2 | 0.7
COCc1nc(-c2ccc3c(c2)OC[C@H]3NC(=O)c2cc(C)nn2C)no1 [Compound 227, (S)-N-(6-(5-(methoxymethyl)-1,2,4-oxadiazol-3-yl)-2,3-dihydrobenzofuran-3-yl)-1,3-dimethyl-1H-pyrazole-5-carboxamide] | 0.7 | 2.2
COCc1nc(-c2ccc3c(c2)CC[C@H]3NC(=O)c2ccnc(C(F)F)c2)no1 [Compound 731, (R)-2-(difluoromethyl)-N-(5-(5-(methoxymethyl)-1,2,4-oxadiazol-3-yl)-2,3-dihydro-1H-inden-1-yl)isonicotinamide] | 1.1 | 5.3
Cn1nccc1C(=O)N[C@@H]1CCc2cc(-c3noc(C4CCO4)n3)ccc21 (stereo partly drawn) [Compound 174, 1-methyl-N-((1R)-5-(5-(oxetan-2-yl)-1,2,4-oxadiazol-3-yl)-2,3-dihydro-1H-inden-1-yl)-1H-pyrazole-5-carboxamide] | 1.1 | 3.8

Next, values leading:

CDMF75 IC15 [µM] | IC50 [µM] | SMILES
20.4 | > 39.2 | O=C(N[C@@H]1CCc2cc(-c3noc(C(F)F)n3)ccc21)C1CCCO1 (stereo partly drawn) [Compound 293, N-((R)-5-(5-(difluoromethyl)-1,2,4-oxadiazol-3-yl)-2,3-dihydro-1H-inden-1-yl)tetrahydrofuran-2-carboxamide]
3.8 | 17.7 | CC1(C(=O)N[C@@H]2CCc3cc(-c4noc(C5CC5)n4)ccc32)CC1 [Compound 330, (R)-N-(5-(5-cyclopropyl-1,2,4-oxadiazol-3-yl)-2,3-dihydro-1H-inden-1-yl)-1-methylcyclopropane-1-carboxamide]
9.5 | > 39.2 | O=C(N[C@@H]1CCc2cc(-c3noc(C(F)F)n3)ccc21)N1CCOCC1 [Compound 301, (R)-N-(5-(5-(difluoromethyl)-1,2,4-oxadiazol-3-yl)-2,3-dihydro-1H-inden-1-yl)morpholine-4-carboxamide]
27.8 | 39.2 | CC(CO)c1nc(-c2ccc3c(c2)CC[C@H]3NC(=O)c2nnn(C)n2)no1 (stereo partly drawn) [Compound 518, N-((1R)-5-(5-(1-hydroxypropan-2-yl)-1,2,4-oxadiazol-3-yl)-2,3-dihydro-1H-inden-1-yl)-2-methyl-2H-tetrazole-5-carboxamide]
3.1 | 13.5 | CC(=O)N[C@@H]1CCc2cc(-c3noc(C(C)C)n3)ccc21 [Compound 395, (R)-N-(5-(5-isopropyl-1,2,4-oxadiazol-3-yl)-2,3-dihydro-1H-inden-1-yl)acetamide]
0.8 | 3.2 | CCc1nc(-c2ccc3c(c2)CC[C@H]3NC(=O)OCCOC)no1 [Compound 324, 2-methoxyethyl (R)-(5-(5-ethyl-1,2,4-oxadiazol-3-yl)-2,3-dihydro-1H-inden-1-yl)carbamate]
0.3 | 0.9 | CCc1nc(-c2ccc3c(c2)CC[C@H]3NC(=O)OCC(F)F)no1 [Compound 333, 2,2-difluoroethyl (R)-(5-(5-ethyl-1,2,4-oxadiazol-3-yl)-2,3-dihydro-1H-inden-1-yl)carbamate]
0.6 | 2.1 | CCc1nc(-c2ccc3c(c2)CC[C@H]3NC(=O)c2ncncc2C)no1 [Compound 643, (R)-N-(5-(5-ethyl-1,2,4-oxadiazol-3-yl)-2,3-dihydro-1H-inden-1-yl)-5-methylpyrimidine-4-carboxamide]
1.7 | 6.1 | COCc1nc(-c2ccc3c(c2)CCC3NC(=O)c2cn(C)nc2C)no1 (centres unmarked) [Compound 76, N-(5-(5-(methoxymethyl)-1,2,4-oxadiazol-3-yl)-2,3-dihydro-1H-inden-1-yl)-1,3-dimethyl-1H-pyrazole-4-carboxamide]
3.1 | 11.6 | CCc1nc(-c2ccc3c(c2)CC[C@H]3NC(=O)c2ccnnc2C)no1 [Compound 637, (R)-N-(5-(5-ethyl-1,2,4-oxadiazol-3-yl)-2,3-dihydro-1H-inden-1-yl)-3-methylpyridazine-4-carboxamide]
0.7 | 2.9 | O=C(NC1CCc2cc(-c3noc(C(F)F)n3)ccc21)c1ocnc1C1CC1 (centres unmarked) [Compound 21, 4-cyclopropyl-N-(5-(5-(difluoromethyl)-1,2,4-oxadiazol-3-yl)-2,3-dihydro-1H-inden-1-yl)oxazole-5-carboxamide]
1.1 | 5 | COc1cc(C(=O)N[C@@H]2CCc3cc(-c4noc(C(F)F)n4)ccc32)ccn1 [Compound 684, (R)-N-(5-(5-(difluoromethyl)-1,2,4-oxadiazol-3-yl)-2,3-dihydro-1H-inden-1-yl)-2-methoxyisonicotinamide]
0.8 | 2.7 | Cc1c(C(=O)N[C@@H]2CCc3cc(-c4noc(C(F)F)n4)ccc32)cnn1CCO [Compound 675, (R)-N-(5-(5-(difluoromethyl)-1,2,4-oxadiazol-3-yl)-2,3-dihydro-1H-inden-1-yl)-1-(2-hydroxyethyl)-5-methyl-1H-pyrazole-4-carboxamide]
6.6 | > 39.2 | Cc1cnc(C(=O)NC2CCc3cc(-c4noc(C(F)F)n4)ccc32)c(C)n1 (centres unmarked) [Compound 41, N-(5-(5-(difluoromethyl)-1,2,4-oxadiazol-3-yl)-2,3-dihydro-1H-inden-1-yl)-3,5-dimethylpyrazine-2-carboxamide]
0.5 | 2 | COCc1nc(-c2ccc3c(c2)CC[C@H]3NC(=O)c2oncc2C)no1 [Compound 114, (R)-N-(5-(5-(methoxymethyl)-1,2,4-oxadiazol-3-yl)-2,3-dihydro-1H-inden-1-yl)-4-methylisoxazole-5-carboxamide]
0.5 | 1.8 | COCc1nc(-c2ccc3c(c2)CC[C@H]3NC(=O)c2ocnc2C)no1 [Compound 177, (R)-N-(5-(5-(methoxymethyl)-1,2,4-oxadiazol-3-yl)-2,3-dihydro-1H-inden-1-yl)-4-methyloxazole-5-carboxamide]
39.2 | > 39.2 | O=C(NC1CCC1)N[C@@H]1CCc2cc(-c3noc(C(F)F)n3)ccc21 [Compound 297, (R)-1-cyclobutyl-3-(5-(5-(difluoromethyl)-1,2,4-oxadiazol-3-yl)-2,3-dihydro-1H-inden-1-yl)urea]
